In patent US20110230481A2, “DERIVATIVES OF TETRABROMOBENZIMIDAZOLE, A PROCESS FOR THE PREPARATION THEREOF, A PHARMACEUTICAL COMPOSITION COMPRISING THE SAME, A METHOD OF USING THE SAME, A METHOD FOR MODULATING OR REGULATING SERINE/THREONINE KINASES, AND SERINE/THREONINE KINASES MODULATING AGENT” (SELVITA S.A., priority 2009, published 2011):

Assays:
Assay in all cases: KINOMEscan Max
Assay type in all cases: binding
MAP3K15 = target: T1, MAP3K15 (Homo sapiens, UniProt Q6ZN16)
T1 construct: purchased Ambit Kinomescan (contract panel)
In short: (§1)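 In this platform each kinase carries a DNA tag and is offered an immobilized ligand aimed at the active site; test compound competes for binding, and the amount of kinase held on the ligand is measured by qPCR.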

MAST1 = MAST1 (Homo sapiens, UniProt Q9Y2H9)
In short: as §1

EGFR(G719C) = target: T2, EGFR(G719C) (Homo sapiens, UniProt P00533, G719C); conditions: 1 μM
T2 construct: purchased Ambit (KINOMEscan Max panel service)
In short: as §1

CAMKK2 = target: T3, CAMKK2 (Homo sapiens, UniProt Q96RR4)
T3 construct: DNA tag (qPCR label); purchased Ambit Kinomescan (contract screening)
In short: as §1

IKK-alpha = target: T4, IKK-alpha (Homo sapiens, UniProt O15111)
T4 construct: DNA tag (qPCR read-out); purchased Ambit Kinomescan
In short: as §1

DYRK2 = target: T5, DYRK2 (Homo sapiens, UniProt Q92630)
T5 construct: DNA tag (qPCR read-out); purchased Ambit Kinomescan
In short: as §1

MKNK2 = target: T6, MKNK2 (Homo sapiens, UniProt Q9HBH9)
T6 construct: DNA tag (qPCR read-out)
T6 sequence (Q9HBH9 whole entry): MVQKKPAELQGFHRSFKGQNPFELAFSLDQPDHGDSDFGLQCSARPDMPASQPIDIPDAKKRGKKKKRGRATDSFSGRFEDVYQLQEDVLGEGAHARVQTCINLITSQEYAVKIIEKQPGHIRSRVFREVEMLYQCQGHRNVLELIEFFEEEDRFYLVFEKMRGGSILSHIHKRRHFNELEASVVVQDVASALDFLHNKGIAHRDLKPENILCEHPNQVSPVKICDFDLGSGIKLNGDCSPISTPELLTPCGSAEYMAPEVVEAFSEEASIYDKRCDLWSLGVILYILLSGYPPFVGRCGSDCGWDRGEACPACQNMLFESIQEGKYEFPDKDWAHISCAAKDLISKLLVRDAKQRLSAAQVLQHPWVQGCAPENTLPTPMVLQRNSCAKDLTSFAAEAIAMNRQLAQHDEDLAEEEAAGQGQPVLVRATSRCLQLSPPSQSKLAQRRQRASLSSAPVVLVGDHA
In short: as §1

MKNK1 = MKNK1 (Homo sapiens, UniProt Q9BUB5)
In short: as §1

TIE2 = TIE2 (Homo sapiens, UniProt Q02763)
In short: as §1

ICK = target: T7, ICK (Homo sapiens, UniProt Q9UPZ9)
T7 construct: purchased Ambit Kinomescan (contract panel, KINOMEscan Max)
In short: as §1

TGFBR1 = target: T8, TGFBR1 (Homo sapiens, UniProt P36897)
T8 construct: purchased Ambit Kinomescan (contract screening service)
T8 sequence (P36897 34-503): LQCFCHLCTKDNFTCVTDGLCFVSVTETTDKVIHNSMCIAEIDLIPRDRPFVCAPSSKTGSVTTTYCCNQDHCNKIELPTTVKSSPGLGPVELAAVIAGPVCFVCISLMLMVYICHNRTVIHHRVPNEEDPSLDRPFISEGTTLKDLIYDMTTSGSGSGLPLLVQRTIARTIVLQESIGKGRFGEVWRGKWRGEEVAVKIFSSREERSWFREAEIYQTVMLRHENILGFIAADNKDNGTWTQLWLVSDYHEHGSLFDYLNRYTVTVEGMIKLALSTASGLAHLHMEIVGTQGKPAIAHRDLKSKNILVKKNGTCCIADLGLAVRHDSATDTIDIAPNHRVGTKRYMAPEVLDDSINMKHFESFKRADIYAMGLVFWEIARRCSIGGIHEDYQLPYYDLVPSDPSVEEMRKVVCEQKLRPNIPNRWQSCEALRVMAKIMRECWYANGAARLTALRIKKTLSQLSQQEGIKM
In short: as §1

EPHB3 = target: T9, EPHB3 (Homo sapiens, UniProt P54753)
T9 construct: DNA tag (qPCR read-out)
In short: as §1

FLT1 = target: T10, FLT1 (Homo sapiens, UniProt P17948)
T10 construct: purchased Ambit Kinomescan (contract panel, KINOMEscan Max)
T10 sequence (P17948 27-1338): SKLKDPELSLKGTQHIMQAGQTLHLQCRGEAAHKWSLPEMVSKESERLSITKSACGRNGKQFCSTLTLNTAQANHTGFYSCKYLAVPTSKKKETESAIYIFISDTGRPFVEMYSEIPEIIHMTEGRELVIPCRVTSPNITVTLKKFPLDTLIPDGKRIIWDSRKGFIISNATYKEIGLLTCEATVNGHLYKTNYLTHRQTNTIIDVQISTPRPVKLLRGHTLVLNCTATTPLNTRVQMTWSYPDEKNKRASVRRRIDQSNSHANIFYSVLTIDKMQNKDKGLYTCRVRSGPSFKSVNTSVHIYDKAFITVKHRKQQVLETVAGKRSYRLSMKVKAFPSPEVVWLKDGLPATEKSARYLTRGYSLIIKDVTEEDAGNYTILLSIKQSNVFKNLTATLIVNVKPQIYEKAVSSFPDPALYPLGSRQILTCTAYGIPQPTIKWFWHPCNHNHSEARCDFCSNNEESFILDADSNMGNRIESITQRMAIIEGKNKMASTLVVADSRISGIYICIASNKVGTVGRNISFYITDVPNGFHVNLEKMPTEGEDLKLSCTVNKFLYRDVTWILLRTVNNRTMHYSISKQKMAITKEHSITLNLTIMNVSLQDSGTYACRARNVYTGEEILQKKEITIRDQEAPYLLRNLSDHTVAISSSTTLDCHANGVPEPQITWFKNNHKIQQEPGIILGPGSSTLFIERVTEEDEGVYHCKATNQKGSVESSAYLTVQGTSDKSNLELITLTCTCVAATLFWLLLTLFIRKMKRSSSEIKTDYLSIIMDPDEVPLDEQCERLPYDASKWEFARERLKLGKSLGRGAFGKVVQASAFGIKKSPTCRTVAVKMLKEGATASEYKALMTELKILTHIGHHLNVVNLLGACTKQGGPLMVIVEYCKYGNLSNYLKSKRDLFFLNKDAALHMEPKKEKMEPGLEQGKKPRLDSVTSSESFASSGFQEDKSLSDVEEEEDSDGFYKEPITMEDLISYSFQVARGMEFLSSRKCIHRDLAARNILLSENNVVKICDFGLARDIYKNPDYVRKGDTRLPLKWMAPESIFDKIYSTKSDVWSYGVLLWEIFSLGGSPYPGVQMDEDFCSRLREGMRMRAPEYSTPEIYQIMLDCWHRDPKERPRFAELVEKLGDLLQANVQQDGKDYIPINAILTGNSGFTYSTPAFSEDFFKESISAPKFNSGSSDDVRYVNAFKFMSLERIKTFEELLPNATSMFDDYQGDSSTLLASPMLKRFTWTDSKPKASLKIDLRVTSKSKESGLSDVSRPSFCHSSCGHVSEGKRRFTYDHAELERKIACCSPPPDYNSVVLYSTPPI
In short: as §1

FLT4 = FLT4 (Homo sapiens, UniProt P35916)
In short: as §1

[1] = target: T11, RPS6KA5(Kin.Dom.2-C-terminal) (Homo sapiens, UniProt O75582)
T11 construct: RPS6KA5(Kin.Dom.2-C-terminal); DNA tag (qPCR read-out)
In short: as §1

SBK1 = target: T12, SBK1 (Homo sapiens, UniProt Q52WX2)
T12 construct: purchased Ambit (KINOMEscan Max service)
In short: as §1

FGR = target: T13, FGR (Homo sapiens, UniProt P09769)
T13 construct: purchased Ambit Kinomescan (contract panel, KINOMEscan Max)
T13 sequence (P09769 whole entry): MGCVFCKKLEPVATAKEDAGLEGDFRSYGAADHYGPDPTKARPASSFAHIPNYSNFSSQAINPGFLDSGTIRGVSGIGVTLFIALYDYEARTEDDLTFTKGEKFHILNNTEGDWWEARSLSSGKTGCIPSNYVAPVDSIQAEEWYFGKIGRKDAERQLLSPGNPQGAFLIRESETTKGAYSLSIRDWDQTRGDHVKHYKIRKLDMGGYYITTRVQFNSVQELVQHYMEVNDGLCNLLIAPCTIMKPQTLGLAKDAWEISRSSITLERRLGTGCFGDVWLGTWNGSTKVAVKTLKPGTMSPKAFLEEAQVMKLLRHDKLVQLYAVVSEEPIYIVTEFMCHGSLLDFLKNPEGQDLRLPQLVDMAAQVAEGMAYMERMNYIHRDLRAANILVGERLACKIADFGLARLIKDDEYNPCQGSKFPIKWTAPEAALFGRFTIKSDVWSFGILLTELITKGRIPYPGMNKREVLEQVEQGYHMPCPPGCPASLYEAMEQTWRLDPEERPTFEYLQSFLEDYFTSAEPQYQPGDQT
In short: as §1

EPHB1 = target: T14, EPHB1 (Homo sapiens, UniProt P54762)
T14 construct: purchased Ambit (KINOMEscan Max panel service)
In short: as §1

PIK3CA(E542K) = PIK3CA(E542K) (Homo sapiens, UniProt P42336, E542K)
PIK3CA(E542K), sequence (P42336 whole entry E542K): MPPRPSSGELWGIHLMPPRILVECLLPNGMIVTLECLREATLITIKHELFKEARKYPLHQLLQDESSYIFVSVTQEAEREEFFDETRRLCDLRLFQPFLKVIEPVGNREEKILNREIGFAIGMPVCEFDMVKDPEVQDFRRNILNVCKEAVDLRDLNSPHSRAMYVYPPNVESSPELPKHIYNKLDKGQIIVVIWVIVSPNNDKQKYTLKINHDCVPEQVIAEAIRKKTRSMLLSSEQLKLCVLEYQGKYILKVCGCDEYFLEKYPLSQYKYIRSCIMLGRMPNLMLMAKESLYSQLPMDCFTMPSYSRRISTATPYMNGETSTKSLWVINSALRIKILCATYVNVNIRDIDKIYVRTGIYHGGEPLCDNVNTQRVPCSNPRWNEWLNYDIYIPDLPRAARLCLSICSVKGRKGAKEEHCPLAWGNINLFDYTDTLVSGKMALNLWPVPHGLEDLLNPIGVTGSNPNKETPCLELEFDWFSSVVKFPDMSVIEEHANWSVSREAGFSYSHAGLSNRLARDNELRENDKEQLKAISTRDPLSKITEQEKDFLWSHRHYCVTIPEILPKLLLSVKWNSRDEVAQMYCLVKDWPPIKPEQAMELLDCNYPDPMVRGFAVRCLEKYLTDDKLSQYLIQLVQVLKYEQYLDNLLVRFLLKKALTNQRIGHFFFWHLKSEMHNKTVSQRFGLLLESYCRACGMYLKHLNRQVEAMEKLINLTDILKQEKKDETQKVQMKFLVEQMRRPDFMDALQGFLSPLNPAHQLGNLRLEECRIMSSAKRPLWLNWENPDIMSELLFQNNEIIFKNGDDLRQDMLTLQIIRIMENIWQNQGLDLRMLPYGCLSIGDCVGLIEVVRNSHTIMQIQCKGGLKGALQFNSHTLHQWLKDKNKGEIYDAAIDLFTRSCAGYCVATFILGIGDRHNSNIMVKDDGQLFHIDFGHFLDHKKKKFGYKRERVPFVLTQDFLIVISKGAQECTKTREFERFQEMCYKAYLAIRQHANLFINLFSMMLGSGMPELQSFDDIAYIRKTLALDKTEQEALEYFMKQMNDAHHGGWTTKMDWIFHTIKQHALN
In short: as §1

QSK = target: T15, QSK (Homo sapiens, UniProt Q9Y2K2); conditions: 1 μM
T15 construct: DNA tag (qPCR read-out)
In short: as §1

TNK2 = target: T16, TNK2 (Homo sapiens, UniProt Q07912)
T16 construct: purchased Ambit Kinomescan (contract screening service)
In short: as §1

PIK3CA(E545K) = PIK3CA(E545K) (Homo sapiens, UniProt P42336, E545K)
PIK3CA(E545K), sequence (P42336 whole entry E545K): as the sequence (P42336 whole entry E542K) above, with K542E, E545K counted along it
In short: as §1

WEE2 = target: T17, WEE2 (Homo sapiens, UniProt P0C1S8)
T17 construct: purchased Ambit Kinomescan (contract screening service)
T17 sequence (P0C1S8 whole entry): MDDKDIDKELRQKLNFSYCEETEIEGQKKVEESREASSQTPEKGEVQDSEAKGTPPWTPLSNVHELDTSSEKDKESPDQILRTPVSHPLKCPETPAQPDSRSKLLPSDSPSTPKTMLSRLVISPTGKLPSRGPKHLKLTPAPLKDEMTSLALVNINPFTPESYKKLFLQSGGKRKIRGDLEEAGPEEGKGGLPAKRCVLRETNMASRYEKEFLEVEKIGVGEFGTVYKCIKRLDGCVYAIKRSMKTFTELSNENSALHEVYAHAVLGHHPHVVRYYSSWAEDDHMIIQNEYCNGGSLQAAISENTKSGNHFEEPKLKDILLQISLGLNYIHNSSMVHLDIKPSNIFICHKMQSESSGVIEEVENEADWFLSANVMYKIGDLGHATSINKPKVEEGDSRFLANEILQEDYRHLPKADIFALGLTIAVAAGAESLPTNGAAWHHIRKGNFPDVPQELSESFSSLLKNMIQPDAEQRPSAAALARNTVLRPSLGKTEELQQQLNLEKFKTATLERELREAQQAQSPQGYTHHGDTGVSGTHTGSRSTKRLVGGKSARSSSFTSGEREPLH
In short: as §1

PLK4 = target: T18, PLK4 (Homo sapiens, UniProt O00444)
T18 construct: DNA tag (qPCR read-out)
In short: as §1

HCK = target: T19, HCK (Homo sapiens, UniProt P08631)
T19 construct: purchased Ambit Kinomescan (contract screening)
In short: as §1

AMPK-alpha2 = target: T20, AMPK-alpha2 (Homo sapiens, UniProt P54646)
T20 construct: DNA tag (qPCR label); purchased Ambit Kinomescan (contract screening)
In short: as §1

[2] = target: T21, RPS6KA5(Kin.Dom.1-N-terminal) (Homo sapiens, UniProt O75582)
T21 construct: RPS6KA5(Kin.Dom.1-N-terminal); DNA tag (qPCR read-out)
In short: as §1

SYK = target: T22, SYK (Homo sapiens, UniProt P43405); conditions: 1 μM
T22 construct: DNA tag (qPCR read-out)
In short: as §1

TNK1 = target: T23, TNK1 (Homo sapiens, UniProt Q13470)
T23 construct: DNA tag (qPCR read-out)
In short: as §1

ACVRL1 = target: T24, ACVRL1 (Homo sapiens, UniProt P37023)
T24 construct: DNA tag (qPCR label); purchased Ambit Kinomescan (contract screening)
T24 sequence (P37023 22-503): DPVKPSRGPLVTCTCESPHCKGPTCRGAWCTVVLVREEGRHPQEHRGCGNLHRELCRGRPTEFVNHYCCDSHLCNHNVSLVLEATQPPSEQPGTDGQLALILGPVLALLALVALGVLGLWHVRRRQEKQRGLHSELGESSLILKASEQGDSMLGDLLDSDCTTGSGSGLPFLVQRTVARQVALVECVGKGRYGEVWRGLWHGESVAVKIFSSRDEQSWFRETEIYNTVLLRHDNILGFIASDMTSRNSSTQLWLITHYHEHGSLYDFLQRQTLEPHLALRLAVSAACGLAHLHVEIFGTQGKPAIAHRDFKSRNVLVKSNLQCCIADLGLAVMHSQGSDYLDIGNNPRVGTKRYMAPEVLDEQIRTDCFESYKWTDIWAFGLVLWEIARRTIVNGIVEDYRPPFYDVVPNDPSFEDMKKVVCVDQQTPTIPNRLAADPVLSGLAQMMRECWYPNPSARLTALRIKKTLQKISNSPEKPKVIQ
In short: as §1

IRAK1 = target: T25, IRAK1 (Homo sapiens, UniProt P51617)
T25 construct: DNA tag (qPCR read-out)
In short: as §1

PLK3 = target: T26, PLK3 (Homo sapiens, UniProt Q9H4B4)
T26 construct: purchased Ambit (KINOMEscan Max service)
In short: as §1

[3] = target: T27, TYK2(JH1domain-catalytic) (Homo sapiens, UniProt P29597); conditions: 1 μM
T27 construct: TYK2(JH1domain-catalytic); purchased Ambit Kinomescan (contract screening service)
In short: as §1

NCCCNc1nc2c(Br)c(Br)c(Br)c(Br)c2[nH]1 [Compound 11, N-(3-aminopropyl)-4,5,6,7-tetrabromo-1H-benzo[d]imidazol-2-amine]
remaining binding at 1 µM (MAP3K15): 100%
remaining binding at 1 µM (MAST1): 95%
% binding (EGFR(G719C)): 100%
remaining binding at 1 µM (CAMKK2): 100%
remaining binding at 1 µM (IKK-alpha): 24%
remaining binding at 1 µM (DYRK2): 4.5%
remaining binding at 1 µM (MKNK2): 35%
remaining binding at 1 µM (MKNK1): 100%
remaining binding at 1 µM (TIE2): 91%
remaining binding at 1 µM (ICK): 100%
remaining binding at 1 µM (TGFBR1): 100%
remaining binding at 1 µM (EPHB3): 91%
remaining binding at 1 µM (FLT1): 100%
remaining binding at 1 µM (FLT4): 94%
remaining binding at 1 µM [1]: 100%
remaining binding at 1 µM (SBK1): 59%
remaining binding at 1 µM (FGR): 100%
remaining binding at 1 µM (EPHB1): 100%
remaining binding at 1 µM (PIK3CA(E542K)): 98%
% binding (QSK): 100%
remaining binding at 1 µM (TNK2): 100%
remaining binding at 1 µM (PIK3CA(E545K)): 92%
remaining binding at 1 µM (WEE2): 100%
remaining binding at 1 µM (PLK4): 100%
remaining binding at 1 µM (HCK): 98%
remaining binding at 1 µM (AMPK-alpha2): 100%
remaining binding at 1 µM [2]: 100%
% binding (SYK): 100%
remaining binding at 1 µM (TNK1): 90%
remaining binding at 1 µM (ACVRL1): 100%
remaining binding at 1 µM (IRAK1): 52%
remaining binding at 1 µM (PLK3): 67%
% binding [3]: 100%
